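Dose response: 5 concentrations. Exposure: 48 h. Format: 96-well plates. Endpoint: linear interpolation; highest concentration if not reached. Abbreviation: GI50, concentration required for 50% inhibition of growth. Definition used: TGI = concentration required for complete inhibition of growth.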

Among the test systems are 786-0 renal; SK-MEL-5 melanoma; SK-MEL-2 melanoma; HT29 colon; ACHN renal; SF-295 CNS; BT-549 breast; RPMI-8226 leukemia; HCC-2998 colon; M14 melanoma.
What all share (assay): NCI anticancer screen, dose series, 48 h

As for `CCCCCCc1cc2cc(-c3csc(/C=C/c4ccccc4)n3)c(=O)oc2cc1O`, the GI50 is 4620 nM in the assay with 786-0 renal; 19300 nM in the assay with SK-MEL-5 melanoma; 18100 nM with SK-MEL-2 melanoma; over 100000 nM in the assay with HT29 colon; 4190 nM with ACHN renal; 13.1 µM in the assay with SF-295 CNS. Further, the GI50 in the assay on BT-549 breast is 35600 nM; in the assay with RPMI-8226 leukemia it was 4840 nM; in the assay on HCC-2998 colon, 6410 nM. Moreover, the TGI in the assay with 786-0 renal was 17.1 µM; in the assay on SK-MEL-5 melanoma, 49.3 µM; in the assay on SK-MEL-2 melanoma it was 41.1 µM; in the assay with HT29 colon, over 100 µM; with ACHN renal, 15.2 µM; in the assay on SF-295 CNS it was 27.2 µM. The TGI in the assay on BT-549 breast was over 100 µM; in the assay on RPMI-8226 leukemia, 19.7 µM; in the assay with HCC-2998 colon it was 29.3 µM.

As for `O=C(NS(=O)(=O)c1ccc(NC[C@H]2COCCO2)c([N+](=O)[O-])c1)c1ccc(N2CCN(CC3=C(c4ccc(Cl)cc4)CC4(CCC4)CC3)CC2)cc1Oc1cnc2[nH]ccc2c1`, the GI50 with M14 melanoma was 2110 nM; in the assay on 786-0 renal, 2470 nM; with SK-MEL-5 melanoma, 1600 nM; in the assay on SK-MEL-2 melanoma it was 1770 nM; in the assay with HT29 colon, 2580 nM; in the assay on ACHN renal, 2230 nM. In addition, the GI50 with SF-295 CNS was 1.66 µM; with BT-549 breast, 2420 nM; with HCC-2998 colon, 1780 nM. Besides, the TGI with M14 melanoma turned out to be 4.99 µM; in the assay on 786-0 renal, 5.69 µM; with SK-MEL-5 melanoma, 2.97 µM; in the assay with SK-MEL-2 melanoma it was 3.4 µM; with HT29 colon, 8.14 µM; in the assay on ACHN renal, 5.8 µM. Moreover, the TGI stood at 4.08 µM in the assay on SF-295 CNS, 5.39 µM in the assay on BT-549 breast and 3.23 µM in the assay on HCC-2998 colon.

As to `CC1(C)OC2C(CO)OC(n3ccc(N)nc3=O)C2O1` (stereo not given), the TGI with M14 melanoma, in the assay with 786-0 renal, in the assay on SK-MEL-5 melanoma, in the assay with SK-MEL-2 melanoma, in the assay with ACHN renal and in the assay on SF-295 CNS was over 100 µM in each case. The TGI with BT-549 breast, with RPMI-8226 leukemia and in the assay with HCC-2998 colon was over 100 µM throughout.

For `CCC(C)(C)[C@H](NC(=O)[C@H]1CCCCN1C)C(=O)N(C)[C@H](C[C@@H](OC(C)=O)c1nc(C(=O)N[C@@H](Cc2ccccc2)C[C@H](C)C(=O)O)cs1)C(C)C`, the GI50 with 786-0 renal was under 1.67 nM; in the assay on SK-MEL-5 melanoma, under 1.67 nM; in the assay with SK-MEL-2 melanoma, under 1.67 nM; in the assay with HT29 colon, under 1.67 nM; with ACHN renal it was under 1.67 nM; in the assay with SF-295 CNS, under 0.00167 µM. For the same molecule, the GI50 with BT-549 breast, in the assay with RPMI-8226 leukemia and in the assay with HCC-2998 colon was under 1.67 nM throughout. In addition, the TGI in the assay with 786-0 renal was over 16.7 µM; with SK-MEL-5 melanoma it was 0.00294 µM; with SK-MEL-2 melanoma, over 16.7 µM; with HT29 colon, over 16.7 µM; in the assay with ACHN renal, over 16.7 µM; in the assay on BT-549 breast it was 0.0136 µM. For the same molecule, the TGI in the assay on RPMI-8226 leukemia and in the assay with HCC-2998 colon was over 16.7 µM in each case.

For the molecule `N#Cc1c2ccccc2c2nnc3ccccc3n12`, the GI50 in the assay on M14 melanoma is 14900 nM; in the assay on 786-0 renal, 53200 nM; with HT29 colon, 42600 nM; in the assay on ACHN renal, 19300 nM; in the assay with SF-295 CNS, 49 µM; in the assay with BT-549 breast, 12000 nM. The GI50 with RPMI-8226 leukemia is over 100000 nM. For the same molecule, the TGI in the assay with M14 melanoma was 62.4 µM; in the assay with 786-0 renal it was over 100 µM; in the assay with HT29 colon, over 100 µM; in the assay with ACHN renal, 61.2 µM; in the assay with SF-295 CNS, over 100 µM; in the assay on BT-549 breast, 45.1 µM. In the assay with RPMI-8226 leukemia, this molecule displayed a TGI of over 100 µM.

Turning to `Cn1c(NCC(CN2CCCC2)OC(=O)c2ccccc2)cc(=O)n(C)c1=O` (stereo not given), the GI50 in the assay with 786-0 renal is over 100000 nM; with SK-MEL-5 melanoma, over 100000 nM; in the assay with SK-MEL-2 melanoma, over 100000 nM; with HT29 colon, over 100000 nM; in the assay on ACHN renal, over 100000 nM; in the assay with SF-295 CNS it was over 100 µM. The GI50 with BT-549 breast, in the assay on RPMI-8226 leukemia and with HCC-2998 colon was over 100000 nM each time. Also, the TGI in the assay on 786-0 renal, in the assay on SK-MEL-5 melanoma, with SK-MEL-2 melanoma, in the assay on HT29 colon, in the assay with ACHN renal and with SF-295 CNS was over 100 µM throughout. Also, the TGI in the assay on BT-549 breast, in the assay on RPMI-8226 leukemia and with HCC-2998 colon was over 100 µM each time.

For `O=C1/C(=C\c2ccccc2)CN(C(=O)c2ccccc2)C/C1=C\c1ccccc1`, the GI50 in the assay on M14 melanoma is 2100 nM; with 786-0 renal it was 2000 nM; in the assay on SK-MEL-5 melanoma it was 1640 nM; in the assay with SK-MEL-2 melanoma, 3500 nM; with HT29 colon, 1910 nM; in the assay with ACHN renal, 1730 nM. Besides, the GI50 was 1860 nM with BT-549 breast, 238 nM in the assay on RPMI-8226 leukemia and 1890 nM in the assay with HCC-2998 colon. For the same molecule, the TGI in the assay on M14 melanoma came out at 4.79 µM; with 786-0 renal it was 4.44 µM; in the assay with SK-MEL-5 melanoma it was 3.06 µM; in the assay with SK-MEL-2 melanoma, 8.96 µM; in the assay with HT29 colon it was 4.09 µM; in the assay with ACHN renal, 3.33 µM. In addition, the TGI in the assay on BT-549 breast turned out to be 3.58 µM; with RPMI-8226 leukemia, 0.747 µM; in the assay on HCC-2998 colon it was 3.48 µM.

For the molecule `CCOC(=O)[C@@H](C)C[C@H](Cc1ccccc1)NC(=O)c1csc([C@@H](C[C@H](C(C)C)N(C)C(=O)[C@@H](NC(=O)[C@H]2C[C@H](O)CCN2C)C(C)C)OC(C)=O)n1`, the GI50 with 786-0 renal is 27.3 nM; in the assay with SK-MEL-5 melanoma, 1.75 nM; in the assay on SK-MEL-2 melanoma, 2.43 nM; in the assay with HT29 colon, 2.3 nM; with ACHN renal, 106 nM; in the assay on SF-295 CNS it was 0.00781 µM. In addition, the figures for the GI50 in the assay on BT-549 breast, with RPMI-8226 leukemia and with HCC-2998 colon were 2.83 nM, under 1.67 nM and 2.95 nM, respectively. For the same molecule, the TGI is over 16.7 µM in the assay on 786-0 renal; 0.13 µM in the assay with SK-MEL-5 melanoma; over 16.7 µM in the assay with SK-MEL-2 melanoma; over 16.7 µM with HT29 colon; over 16.7 µM in the assay with ACHN renal; over 16.7 µM in the assay with SF-295 CNS. The results for the TGI with BT-549 breast, in the assay with RPMI-8226 leukemia and in the assay with HCC-2998 colon were 0.0915 µM, over 16.7 µM and over 16.7 µM, respectively.

The values above are taken from PubChem BioAssay (NCI).
